# Source: ChEMBL document CHEMBL5344413, “Discovery of 4-(1,2,4-Oxadiazol-5-yl)azepan-2-one Derivatives as a New Class of Cannabinoid Type 2 Receptor Agonists for the Treatment of Inflammatory Pain” (J Med Chem, 2023)
# Calls of active or inactive are those of the source.
# What was measured:
# [1] = Tmax in BALB/c mouse at 1 mg/kg, iv; format: ADME, organism-based; settings: in vivo
# [2] = AUC(0 to infinity) in BALB/c mouse at 20 mg/kg, po; format: ADME, organism-based; set-up: dose 20 mg/kg, route po; settings: in vivo
# [3] = Intrinsic clearance in mouse liver microsomes at 10 uM measured per mg protein; format: ADME, Microsome; settings: read-out: CLH
# [4] = Half life in BALB/c mouse at 20 mg/kg, po; format: ADME, organism-based; settings: in vivo
# [5] = Toxicity against C57BL/6 mouse assessed as induction of catalepsy at 20 mg/kg, ip measured within 4 hrs; format: organism-based; settings: in vivo
# [6] = Intrinsic clearance in human liver microsomes at 10 uM measured per mg protein; format: ADME, Microsome; settings: read-out: CLH
# [7] = Tmax in BALB/c mouse at 5 mg/kg, po; format: ADME, organism-based; settings: in vivo
# Mus musculus [8] = assay: Antinociceptive activity against carrageenan-induced inflammatory C57BL/6 mouse model assessed as reduction in paw thickness at 20 mg/kg, ip administered with CB2 receptor antagonist, AM630 at 10 mins prior to drug challenge and measured at 5 hrs and 2 hrs following carrageenan and compound challenge respectively by digital caliper analysis; format: functional, organism-based
# [9] = Cmax in BALB/c mouse at 5 mg/kg, po; format: ADME, organism-based; set-up: dose 5 mg/kg, route po; settings: in vivo
# [10] = Intrinsic clearance in rat liver at 10 uM measured per kg body weight; format: ADME, tissue-based
# Mus musculus [11] = assay: Antinociceptive activity against ip dosed carrageenan-induced inflammatory C57BL/6 mouse model assessed as reduction in hyperalgesia by measuring increase in paw withdrawal threshold measured at 5 hrs and 2 hrs following carrageenan and compound challenge respectively by plantar esthesiometer analysis; format: functional, organism-based; settings: dose 5-20 mg/kg
# Cannabinoid receptor 2 [12] = biological target: T1, Cannabinoid receptor 2 (Homo sapiens, UniProt P34972); assay: Agonist activity at N-terminal HA/Flag-tagged CB2 receptor (unknown origin) expressed in CHO cells assessed as increase in ERK1/2 phosphorylation measured after 15 mins by western blot analysis; format: functional, cell-based; settings: filed as agonist, dose 12-300 nM
# T1 sequence (P34972 whole entry): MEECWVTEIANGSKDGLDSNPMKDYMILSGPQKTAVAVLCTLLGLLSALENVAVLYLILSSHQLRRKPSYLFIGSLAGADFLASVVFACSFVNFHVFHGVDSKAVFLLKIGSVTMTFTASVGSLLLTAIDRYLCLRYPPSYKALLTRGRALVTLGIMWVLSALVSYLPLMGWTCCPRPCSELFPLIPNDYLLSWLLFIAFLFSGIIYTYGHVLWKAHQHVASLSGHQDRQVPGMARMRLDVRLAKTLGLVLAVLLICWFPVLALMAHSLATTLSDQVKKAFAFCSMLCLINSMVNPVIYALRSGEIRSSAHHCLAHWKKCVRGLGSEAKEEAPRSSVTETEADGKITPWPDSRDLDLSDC
# Mus musculus [13] = assay: Antinociceptive activity against carrageenan-induced inflammatory C57BL/6 mouse model assessed as reduction in paw thickness at 20 mg/kg, ip measured at 5 hrs and 2 hrs following carrageenan and compound challenge respectively by digital caliper analysis; format: functional, organism-based
# [14] = Metabolic stability of the compound in rat liver microsomes assessed as parent compound remaining at 10 uM measured after 60 mins; format: ADME, Microsome; settings: read-out: Stability
# [15] = test system: Cannabinoid receptor 2 (Homo sapiens), P34972 [UNDEFINED MUTATION]; assay: Agonist activity at CB2 receptor F183ECL2A mutant (unknown origin) expressed in CHO cells assessed as inhibition of forskolin-stimulated intracellular cAMP accumulation measured after 30 mins by Glosensor assay; format: cell-based
# Sequence of Cannabinoid receptor 2 (Homo sapiens), P34972 [UNDEFINED MUTATION] (P34972 whole entry, looked up, stated change not applied): as the sequence (P34972 whole entry) above
# [16] = Half life in BALB/c mouse at 5 mg/kg, po; format: ADME, organism-based; settings: in vivo
# CHO [17] = assay: Agonist activity at CB2 receptor F872.57A mutant (unknown origin) expressed in CHO cells assessed as inhibition of forskolin-stimulated intracellular cAMP accumulation measured after 30 mins by Glosensor assay; format: cell-based; settings: Homo sapiens
# [18] = MRT(0 to t) in BALB/c mouse at 5 mg/kg, po; format: ADME, organism-based; settings: in vivo
# [19] = MRT(0 to t) in BALB/c mouse at 1 mg/kg, iv; format: ADME, organism-based; settings: in vivo
# Cannabinoid receptor 2 [20] = biological target: T1, Cannabinoid receptor 2; assay: Agonist activity at human CB2 receptor expressed in CHO cells assessed as inhibition of forskolin-stimulated intracellular cAMP accumulation measured after 30 mins by Glosensor assay; format: functional, cell-based
# [21] = Intrinsic clearance in rat liver microsomes at 10 uM measured per mg protein; format: ADME, Microsome; settings: read-out: CLH
# [22] = Half life in rat liver microsomes at 10 uM; format: ADME, Microsome
# [23] = Intrinsic clearance in mouse liver at 10 uM measured per kg body weight; format: ADME, tissue-based
# [24] = Protein binding in mouse plasma by dialysis method; format: ADME, cell-free; settings: read-out: PPB (converted)
# [25] = AUC(0 to t) in BALB/c mouse at 5 mg/kg, ip; format: ADME, organism-based; set-up: dose 5 mg/kg, route ip; settings: in vivo
# [26] = Half life in human liver microsomes at 10 uM; format: ADME, Microsome
# CHO [27] = assay: Induction of Akt phosphorylation in Chinese hamster CHO cells at 1000 nM measured after 15 mins by western blot analysis; format: cell-based; settings: Cricetulus griseus
# Mus musculus [28] = assay: Antinociceptive activity against carrageenan-induced inflammatory C57BL/6 mouse model assessed as reduction in hyperalgesia by measuring increase in paw withdrawal threshold at 20 mg/kg, ip administered with CB2 receptor antagonist, AM630 at 10 mins prior to drug challenge and measured at 5 hrs and 2 hrs following carrageenan and compound challenge respectively by plantar esthesiometer analysis; format: functional, organism-based
# Cannabinoid receptor 2 [29] = biological target: T1, Cannabinoid receptor 2; assay: Agonist activity at N-terminal HA/Flag-tagged CB2 receptor (unknown origin) expressed in CHO cells assessed as increase in Akt phosphorylation at 300 nM measured after 15 mins in presence of CB2 receptor antagonist, AM630 by western blot analysis; format: functional, cell-based
# [30] = Half life in BALB/c mouse at 1 mg/kg, iv; format: ADME, organism-based; settings: in vivo
# [31] = Clearance in BALB/c mouse at 1 mg/kg, iv; format: ADME, organism-based; settings: in vivo
# [32] = Toxicity against C57BL/6 mouse assessed as change in body temperature at 20 mg/kg, ip measured within 4 hrs by thermometer analysis; format: organism-based; settings: in vivo
# [33] = Clearance in BALB/c mouse at 5 mg/kg, ip; format: ADME, organism-based; settings: in vivo
# Cannabinoid receptor 2 [34] = biological target: T1, Cannabinoid receptor 2; assay: Agonist activity at N-terminal HA/Flag-tagged CB2 receptor (unknown origin) expressed in CHO cells assessed as increase in ERK1/2 phosphorylation at 300 nM measured after 15 mins in presence of CB2 receptor antagonist, AM630 by western blot analysis; format: functional, cell-based
# [35] = Metabolic stability of the compound in human liver microsomes assessed as parent compound remaining at 10 uM measured after 60 mins; format: ADME, Microsome; settings: read-out: Stability
# CHO [36] = assay: Induction of ERK1/2 phosphorylation in Chinese hamster CHO cells at 1000 nM measured after 15 mins by western blot analysis; format: cell-based; settings: Cricetulus griseus
# [37] = Cmax in BALB/c mouse at 1 mg/kg, iv; format: ADME, organism-based; set-up: dose 1 mg/kg, route iv; settings: in vivo
# [38] = Tmax in BALB/c mouse at 5 mg/kg, ip; format: ADME, organism-based; settings: in vivo
# Homo sapiens = species: Homo sapiens; assay: Selectivity ratio of EC50 for agonist activity at human CB1 receptor expressed in CHO cells to EC50 for agonist activity at human CB2 receptor expressed in CHO cells; format: cell-based
# [39] = Oral bioavailability in BALB/c mouse at 5 mg/kg; format: ADME, organism-based; settings: in vivo
# [40] = Clearance in BALB/c mouse at 5 mg/kg, po; format: ADME, organism-based; settings: in vivo
# [41] = Bioavailability in BALB/c mouse at 5 mg/kg, ip; format: ADME, organism-based; settings: in vivo
# [42] = Protein binding in human plasma by dialysis method; format: ADME, cell-free; settings: read-out: PPB (converted)
# [43] = MRT(0 to t) in BALB/c mouse at 5 mg/kg, ip; format: ADME, organism-based; settings: in vivo
# Cannabinoid receptor 1 = Cannabinoid receptor 1 (Homo sapiens, UniProt P21554); assay: Agonist activity at human CB1 receptor expressed in CHO cells assessed as inhibition of forskolin-stimulated intracellular cAMP accumulation measured after 30 mins by Glosensor assay; format: cell-based
# Sequence of Cannabinoid receptor 1 (P21554 whole entry): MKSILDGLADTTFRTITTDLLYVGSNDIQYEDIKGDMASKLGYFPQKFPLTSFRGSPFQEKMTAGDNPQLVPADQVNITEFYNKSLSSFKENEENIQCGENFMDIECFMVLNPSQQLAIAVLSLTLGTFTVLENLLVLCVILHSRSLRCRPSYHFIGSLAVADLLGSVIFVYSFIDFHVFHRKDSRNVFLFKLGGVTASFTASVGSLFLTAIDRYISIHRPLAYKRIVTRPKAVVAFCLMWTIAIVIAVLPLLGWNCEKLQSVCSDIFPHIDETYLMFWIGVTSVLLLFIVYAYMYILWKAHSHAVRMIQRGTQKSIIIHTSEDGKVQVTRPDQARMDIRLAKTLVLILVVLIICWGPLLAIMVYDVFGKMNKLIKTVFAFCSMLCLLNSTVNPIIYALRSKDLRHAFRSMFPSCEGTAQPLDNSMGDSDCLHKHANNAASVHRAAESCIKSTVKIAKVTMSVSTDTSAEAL
# [44] = Intrinsic clearance in human liver at 10 uM measured per kg body weight; format: ADME, tissue-based
# [45] = AUC(0 to t) in BALB/c mouse at 1 mg/kg, iv; format: ADME, organism-based; set-up: dose 1 mg/kg, route iv; settings: in vivo
compound,measurement,setting,value
O=C1CC(c2nc(-c3ccc(F)c4cn[nH]c34)no2)CCCN1c1ccc(F)cc1 (configuration not stated),Tmax,[1],4.8 min
same,AUC(0-inf),[2],18000 ng·h/mL
same,microsomal CLint at 10 µM,[3],106 µL/min/mg
same,half-life,[4],224 min
same,Activity,[5],Non-Toxic
same,microsomal CLint at 10 µM,[6],23 µL/min/mg
same,Tmax,[7],25.2 min
same,Activity,Mus musculus [8],inactive
same,Cmax,[9],621 ng/mL
same,CLH,[10],232 mL/min/kg
same,Activity,Mus musculus [11],Dose-Dependent Effect
same,Activity,Cannabinoid receptor 2 [12],Dose-Dependent Effect
same,Activity,Mus musculus [13],Active
same,"remaining at 1 h, 10 µM",[14],1.83%
same,Activity,[15],inactive
same,half-life,[16],42 min
same,Activity,CHO [17],inactive
same,MRT last,[18],128 min
same,MRT last,[19],49.8 min
same,EC50,Cannabinoid receptor 2 [20],21 nM
same,microsomal CLint at 10 µM,[21],130 µL/min/mg
same,half-life at 10 µM,[22],10.7 min
same,CLH,[23],415 mL/min/kg
same,fraction unbound,[24],0.032
same,AUC(0-t),[25],1830 ng·h/mL
same,half-life at 10 µM,[26],60.3 min
same,Activity,CHO [27],inactive
same,Activity,Mus musculus [28],inactive
same,Activity,Cannabinoid receptor 2 [29],inactive
same,half-life,[30],70.8 min
same,clearance,[31],41.2 mL/min/kg
same,Activity,[32],Non-Toxic
same,CL/F,[33],45.8 mL/min/kg
same,Activity,Cannabinoid receptor 2 [34],inactive
same,"remaining at 1 h, 10 µM",[35],46.3%
same,Activity,CHO [36],inactive
same,Cmax,[37],615 ng/mL
same,Tmax,[38],19.8 min
same,Ratio EC50,Homo sapiens,> 1430
same,bioavailability,[39],80.5%
same,CL/F,[40],50.8 mL/min/kg
same,bioavailability,[41],88.5%
same,fraction unbound,[42],0.011
same,MRT last,[43],103 min
same,EC50,Cannabinoid receptor 1,> 30000 nM
same,CLH,[44],28.8 mL/min/kg
same,AUC(0-t),[45],413 ng·h/mL
